Test in all cases: NCI-60 cell line screen, 48 h
In assay [1] the test system is A549 NSCLC.
Assay [2] deals with COLO 205 colon.
Assay [3] has as its system HCT-116 colon.
Assay [4] concerns HL-60(TB) leukemia.
Assay [5] relates to HOP-62 NSCLC.
The test system of assay [6] is IGROV1 ovarian.
For assay [7], the system named is K-562 leukemia.
The subject of assay [8] is LOX IMVI melanoma.
Assay [9] relates to MALME-3M melanoma.
Assay [10] relates to MOLT-4 leukemia.
The subject of assay [11] is NCI-H23 lung.
The test system of assay [12] is NCI-H460 lung.
For assay [13], the system named is OVCAR-3 ovarian.
The test system of assay [14] is OVCAR-4 ovarian.
Assay [15] concerns SF-295 CNS.
The subject of assay [16] is SK-MEL-2 melanoma.
Assay [17] deals with SN12C renal.
For assay [18], the system named is UO-31 renal.
Assay [19] relates to RPMI-8226 leukemia.

Our source for the TGI values is PubChem BioAssay (NCI).

Molecules are shown by their SMILES.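 Dose response: 5 concentrations. Exposure: 48 h. Format: 96-well plates. Endpoint: linear interpolation; highest concentration if not reached. TGI: total growth inhibition.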 Some results are limits rather than exact numbers.

Take `CCCC1(NC(=O)C(F)(F)F)CC(OC)OC2COC(c3ccccc3)OC21` (configuration not stated): the TGI was above 100 µM in assay [1]; 48.6 µM in assay [2]; above 100 µM in assay [3]; 95.3 µM in assay [4]; above 100 µM in assay [5]; above 100 µM in assay [6]. The TGI in assay [7], in [8], in [9], in assay [10], in assay [11] and in [12] was above 100 µM in each case. For the same molecule, the TGI in assay [13], in [14], in [15], in [16], in assay [17] and in [18] was above 100 µM in each case.

In the case of `O=Nc1c(O)cc(Nc2ccc(Br)cc2)c2ccccc12`, the TGI is 6.04 µM in assay [1]; 26.6 µM in assay [2]; above 59.2 µM in [3]; 55.9 µM in assay [4]; 19.1 µM in assay [5]; above 100 µM in assay [6]. Further, the TGI is above 75 µM in assay [7]; above 31.2 µM in assay [8]; 42 µM in [10]; 3.47 µM in [11]; 11 µM in assay [12]; above 51.9 µM in assay [13]. Also, the TGI in [14] was above 100 µM; in assay [19], above 86.9 µM; in [15] it was 2.98 µM; in assay [16], 3.64 µM; in [17] it was above 63.6 µM; in [18], 23 µM.

Regarding `CCOC(=O)c1c(N)sc2c1C(C(=O)OCC)CC2` (configuration not stated), the TGI in assay [1], in [2], in [3], in assay [4], in [5] and in assay [6] was above 100 µM each time. The TGI in [7], in assay [9], in [10], in assay [11], in assay [12] and in [19] was above 100 µM each time. Besides, the TGI in assay [16], in assay [17] and in [18] was above 100 µM in each case.

For the molecule `CCNCCNc1c2ccccc2nc2ccccc12`, the TGI in assay [1] was 4.95 µM; in [2] it was 3.42 µM; in assay [3] it was 7.99 µM; in [4], above 100 µM; in [5], 4.21 µM; in assay [6], 9.82 µM. Further, the TGI was 5.66 µM in assay [7]; 2.95 µM in [8]; 4.6 µM in assay [9]; above 100 µM in assay [10]; 3.36 µM in assay [11]; 1.54 µM in assay [12]. Moreover, the TGI in assay [13] worked out at 24.5 µM; in assay [14], 11.1 µM; in assay [15], 3.3 µM; in [16], 3.63 µM; in [17], 4.91 µM; in assay [18], 5.02 µM.

For `CC(NNC(=O)c1ccncc1)c1ccc(F)cc1` (configuration not stated), the TGI in [1], in assay [2], in assay [3], in assay [4], in assay [5] and in assay [6] was above 100 µM in each case. Also, the TGI in [7], in [8], in assay [9], in assay [10], in [11] and in assay [12] was above 100 µM each time. The TGI in assay [13], in assay [14], in assay [15], in assay [16], in [17] and in assay [18] was above 100 µM in each case.

In the case of `C=CCOc1ccc(/C(N=Nc2ccc([N+](=O)[O-])cc2)=N/NC(=O)c2ccccc2)cc1OC`, the TGI in assay [1], in assay [2], in assay [3], in assay [4], in assay [5] and in assay [6] was above 100 µM throughout. The TGI in [8], in assay [9], in [10], in assay [11], in assay [12] and in assay [13] was above 100 µM throughout. Also, the TGI in assay [14], in assay [15], in [16], in assay [17] and in assay [18] was above 100 µM each time.

With `CC(=O)OCOC(=O)CN(CC(=O)OCOC(C)=O)Cc1cc2c(cc1OC(C)=O)Oc1cc(OC(C)=O)c(CN(CC(=O)OCOC(C)=O)CC(=O)OCOC(C)=O)cc1C21OC(=O)c2ccccc21`, the TGI in assay [1] was found to be 4.82 µM; in assay [2], 1.86 µM; in [3], 1.5 µM; in assay [4], 0.0289 µM; in [5], 3.48 µM; in assay [6] it was 1.36 µM. Besides, the TGI in assay [7] is 0.401 µM; in [8], 1.29 µM; in assay [9], 1.88 µM; in assay [10], 0.843 µM; in assay [11], 2.51 µM; in [12] it was 1.45 µM. Further, the TGI is 2.98 µM in assay [13]; 3.42 µM in assay [14]; 11.1 µM in assay [15]; 2.33 µM in assay [16]; 2.83 µM in [17]; 6.38 µM in assay [18].
